The values below come from publication PMC6433934, “Preclinical Evaluation of Bispecific Adaptor Molecule Controlled Folate Receptor CAR-T Cell Therapy With Special Focus on Pediatric Malignancies” (Frontiers in Oncology, 2019).

Each structure is given as a SMILES string. pKd: −log10 of the molar value.

Series [1] relates to HOS-FRα tumor-bearing mice. The series is described as follows: Toxicity and CRS rescue with sodium fluorescein. The settings on record: ~2.5 million CD8 and ~33 million CD4 E2-CAR-T cells. It is filed as in vivo. On the procedure: Depending on the CAR-T cell dose and how EC17 is administered, tumor-bearing mice receiving FITC-specific CAR-T cells can experience severe CRS and varying degrees of body weight loss ([27], [33], [34]). Therefore, we developed a CRS grading system (0–5 scale) to empirically assess CRS toxicity from animals' gross morphology and social behavior to allow for better timing of CRS rescue. While grades 0 and 5 indicated normal (no CRS) or death (due to severe CRS), respectively, grades 1, 2, and 3–4 were considered mild, light-to-moderate, and severe CRS. In addition, all EC17 doses were intentionally given toward the end of any given day to allow potential CRS symptoms to develop overnight. On the days immediately following each EC17 dose, animals were scored and rescue agents such as sodium fluorescein, folic acid and leucovorin were used to mitigate CRS toxicity ([33]). In this particular instance, a batch of E2-CAR-T cells with a high EGFRt+ CD4/CD8 ratio (~93:7) was given to HOS-FRα tumor-bearing mice at a mixture of ~2.5 million CD8 and ~33 million CD4 on day 0. When EC17 was dosed, respectively, at 500, 100, and 500 nmol/kg on days 3, 10, and 12, low CRS (grades 1–2) was noted on days 4 and 11 but high CRS (grade 3) was noted on day 13. To mitigate the severe CRS toxicity, sodium fluorescein was intravenously administrated at ~96 mg/kg in the morning of day 13 and mouse plasma samples were collected 6 h later for analysis of CRS-associated cytokines.

In a further series the target is T1, FRβ (Homo sapiens, UniProt P14207).
T1 construct: expressed in transfected cells; host or cells: Chinese hamster ovary cells (CHO-β)
Description: 3H-EC17 cell-based radioligand binding, CHO-β cells. The settings on record: ^3H-EC17, CHO-β cells, 2 h at 37°C, from molecules bound per cell. On the procedure:
Unless otherwise noted, all FR+ and FR-negative cancer cell lines were, respectively, maintained in RPMI-1640 medium (Gibco BRL) supplemented with 10% heat-inactivated fetal calf serum without (FFRPMI) or with (RPMI) 2.4 μM folic acid (FA). KB (FRα-expressing human cervical carcinoma with HeLa markers) and CHO-β (Chinese hamster ovary cells transfected with human FRβ) were used as the sources of FRα and FRβ for radioligand binding assays, respectively ([18]). MDA-MB-231 represents a FRα+ subclone of human TNBC cell line. For AML studies, the green fluorescent protein (GFP)-expressing isogenic pairs of FRβ-positive (THP1-FRβ) and FR-negative (THP1-FG12) cell lines were kindly provided by Dr. Manohar Ratnam (The University of Toledo, Toledo, OH). […]
The bispecific affinities of EC17 CAM were assessed using ^3H-EC17 in cell-based radioligand binding assays. […] The whole cell lysates were quantitated for the level of radioactivity and cellular protein content by standard Pierce BCA protein assay. The number of ^3H-EC17 molecules bound per cell was calculated to determine the dissociation constants (Kd) for FRα (KB) and FRβ (CHO-β), respectively. […] Afterwards, the cells were washed 4x with PBS, lysed with 0.1% Triton X-100 plus 0.1 N NaOH and counted in a scintillation counter. […]

One may read the pKd as −log10 of the Kd, conventionally taken in molar units. Read a low pKd as a large Kd.

T1 sequence (P14207 17-255): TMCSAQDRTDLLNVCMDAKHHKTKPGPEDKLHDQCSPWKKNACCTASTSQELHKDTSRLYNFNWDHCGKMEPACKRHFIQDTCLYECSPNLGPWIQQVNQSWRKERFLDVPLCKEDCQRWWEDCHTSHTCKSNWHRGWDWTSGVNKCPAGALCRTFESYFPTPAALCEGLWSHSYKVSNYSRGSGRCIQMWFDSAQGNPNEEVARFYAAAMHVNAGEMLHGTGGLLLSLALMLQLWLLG

On to `Nc1nc2ncc(CNc3ccc(C(=O)NC(CCC(=O)NCCNC(=S)Nc4ccc(-c5c6ccc(=O)cc-6oc6cc(O)ccc56)c(C(=O)O)c4)C(=O)O)cc3)nc2c(=O)[nH]1` (stereo not drawn) [EC17, FA-(γ)-ethylenediamine-FITC], for which the CRS grade was 3 in series [1] (day 13, after EC17 500 nmol/kg on day 12); 1–2 in series [1] (days 4 and 11, after EC17 500 and 100 nmol/kg on days 3 and 10). For the same compound, on FRβ, the pKd is 9.10.
